For one test, the target named is c-Abl kinase (Abelson murine leukemia virus, UniProt P00521). The test is described as follows: Inhibition of c-Abl kinase activity (cell-free, Abl peptide substrate, 33P Flashplate). The class given is biochemical. The settings on record: IC50 for the c-Abl kinase activity.
Test [1] deals with T1, PDGF-receptor beta enzyme comprising the tyrosine kinase domain (Homo sapiens, UniProt P09619).
T1 construct: from amino acid 545 to 1106 of GenBank Access NO: AAA36427
The test is described as follows: Inhibition of PDGF-receptor kinase activity (cell-free, PLC1 peptide, 33P Flashplate). The class given is biochemical. The conditions noted are these: PDGF-R kinase activity; for inhibition at 10 µM: compound at 10 uM, read-out: Percent Inhibition @ 10 uM; for IC50: read-out: IC50. In short, it runs like this: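 Recombinant kinase domain (aa 545–1106) phosphorylated a biotinylated PLC1 peptide with 5 μM ATP plus 33P-γ-ATP, in Tris pH 8, MgCl2, Na3VO4 and 1 mM DTT, for 60 min at 30 °C. Retained 33P was counted after washing. IC50 is the concentration halving activity versus no-inhibitor reactions.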

T1 sequence (P09619 545-1106): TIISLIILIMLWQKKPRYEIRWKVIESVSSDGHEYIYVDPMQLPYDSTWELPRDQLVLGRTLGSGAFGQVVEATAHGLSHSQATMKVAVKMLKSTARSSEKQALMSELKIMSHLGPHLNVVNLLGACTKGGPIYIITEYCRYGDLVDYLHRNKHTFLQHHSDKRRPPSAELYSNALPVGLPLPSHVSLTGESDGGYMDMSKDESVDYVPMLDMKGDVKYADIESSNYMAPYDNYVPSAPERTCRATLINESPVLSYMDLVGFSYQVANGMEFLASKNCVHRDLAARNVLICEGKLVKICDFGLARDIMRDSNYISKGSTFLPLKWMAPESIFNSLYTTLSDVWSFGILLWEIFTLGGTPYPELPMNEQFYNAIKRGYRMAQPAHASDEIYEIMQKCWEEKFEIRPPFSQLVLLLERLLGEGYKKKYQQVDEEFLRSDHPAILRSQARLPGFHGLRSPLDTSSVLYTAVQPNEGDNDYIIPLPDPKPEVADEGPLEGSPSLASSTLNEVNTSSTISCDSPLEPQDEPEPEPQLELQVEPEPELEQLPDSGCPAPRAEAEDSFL
Chain of c-Abl kinase (P00521 115-385): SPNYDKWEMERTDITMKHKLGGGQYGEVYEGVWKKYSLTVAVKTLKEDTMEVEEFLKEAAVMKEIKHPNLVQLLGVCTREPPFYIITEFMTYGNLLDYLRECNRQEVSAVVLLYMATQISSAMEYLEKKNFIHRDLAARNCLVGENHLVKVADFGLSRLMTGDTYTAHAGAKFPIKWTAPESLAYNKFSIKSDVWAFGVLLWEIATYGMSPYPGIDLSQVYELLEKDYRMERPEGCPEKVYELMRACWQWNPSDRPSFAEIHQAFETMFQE

With `CC(O)c1cccc(Nc2[nH]nc3c2Cc2cc(F)ccc2-3)c1` (stereo not drawn) [Compound 289, 1-[3-(6-Fluoro-2,4-dihydro-indeno[1,2-c]pyrazol-3-ylamino)-phenyl]-ethanol], on c-Abl kinase, the IC50 (as a rule, the point on the concentration scale where inhibition reaches its midpoint) amounted to 2400 nM. In test [1], the inhibition (usually the percentage by which the read-out fell short of the control) at 10 µM worked out at 93.5% and the concentration for half-maximal inhibition (IC50) came to 18.5 nM.

`CCOc1cc2c(cc1OCC)-c1n[nH]c(NCc3ccccc3Cl)c1C2` [Compound 292, (2-Chloro-benzyl)-(6,7-diethoxy-2,4-dihydro-indeno[1,2-c]pyrazol-3-yl)-amine]: the IC50 at c-Abl kinase came to 1 nM. In test [1], the inhibition at 10 µM stood at 86.5% and the half-inhibitory concentration (IC50) turned out to be 18.2 nM.

As for `Fc1ccc2c(c1)-c1n[nH]c(Nc3ccccc3)c1C2` [Compound 299, (7-Fluoro-2,4-dihydro-indeno[1,2-c]pyrazol-3-yl)-phenyl-amine], on c-Abl kinase, the IC50 was 198 nM. In test [1], the inhibition at 10 µM amounted to 80% and the IC50 is 19.3 nM.

Consider `COc1ccc(Nc2[nH]nc3c2Cc2ccc(C)cc2-3)cc1Cl` [Compound 309, (3-Chloro-4-methoxy-phenyl)-(7-methyl-2,4-dihydro-indeno[1,2-c]pyrazol-3-yl)-amine], for which, at c-Abl kinase, the 50% inhibitory concentration (IC50) was 822 nM. In test [1], the inhibition at 10 µM is 92.5% and the IC50 turned out to be 30.2 nM.

As for `Cc1ccc2c(c1)-c1n[nH]c(Nc3cccc(C(C)O)c3)c1C2` (stereo not drawn) [Compound 310, 1-[3-(7-Methyl-2,4-dihydro-indeno[1,2-c]pyrazol-3-ylamino)-phenyl]-ethanol], on c-Abl kinase, the IC50 turned out to be 1470 nM. In test [1], the inhibition at 10 µM came out at 95.5% and the IC50 amounted to 20.2 nM.

As to `Fc1cccc(Nc2[nH]nc3c2Cc2ccc(F)cc2-3)c1` [Compound 334, (7-Fluoro-2,4-dihydro-indeno[1,2-c]pyrazol-3-yl)-(3-fluoro-phenyl)-amine], the IC50 came out at 3300 nM at c-Abl kinase and 8.69 nM in test [1]. Moreover, in test [1], the inhibition at 10 µM was determined as 99.5%.

In the case of `Fc1cccc(Nc2[nH]nc3c2Cc2ccccc2-3)c1` [Compound 337, (2,4-Dihydro-indeno[1,2-c]pyrazol-3-yl)-(3-fluoro-phenyl)-amine], on c-Abl kinase, the concentration for half-maximal inhibition (IC50) worked out at 2740 nM. For the same compound, in test [1], the inhibition at 10 µM stood at 100% and the IC50 worked out at 8.8 nM.

As for `Fc1ccc(F)c(Nc2[nH]nc3c2Cc2ccccc2-3)c1` [Compound 339, (2,5-Difluoro-phenyl)-(2,4-dihydro-indeno[1,2-c]pyrazol-3-yl)-amine], the IC50 on c-Abl kinase worked out at 2180 nM. Also, in test [1], the inhibition at 10 µM amounted to 100% and the 50% inhibitory concentration (IC50) was 117 nM.

For `COc1ccc(OC)c(Nc2[nH]nc3c2Cc2ccccc2-3)c1` [Compound 341, (2,4-Dihydro-indeno[1,2-c]pyrazol-3-yl)-(2,5-dimethoxy-phenyl)-amine], the IC50 at c-Abl kinase was found to be 350 nM. For the same compound, in test [1], the inhibition at 10 µM came out at 92.5% and the IC50 was 41.2 nM.

As for `CCOc1cc2c(cc1OCC)C(C)c1c-2n[nH]c1Nc1cccc(OC)c1` (stereo not drawn) [Compound 348, (6,7-Diethoxy-4-methyl-2,4-dihydro-indeno[1,2-c]pyrazol-3-yl)-(3-methoxy-phenyl)-amine], at c-Abl kinase, the 50% inhibitory concentration (IC50) was determined as 11 nM. In addition, in test [1], the inhibition at 10 µM turned out to be 97.5% and the IC50 was determined as 25.3 nM.

Consider `COc1cc2c(cc1F)Cc1c-2n[nH]c1Nc1cccc(Br)c1` [Compound 358, (3-Bromo-phenyl)-(6-fluoro-7-methoxy-2,4-dihydro-indeno[1,2-c]pyrazol-3-yl)-amine], for which the IC50 at c-Abl kinase was determined as 338 nM. Besides, in test [1], the inhibition at 10 µM turned out to be 92% and the IC50 came out at 8.77 nM.

In the case of `COc1cc2c(cc1F)Cc1c-2n[nH]c1Nc1ccc(F)c(Cl)c1` [Compound 359, (3-Chloro-4-fluoro-phenyl)-(6-fluoro-7-methoxy-2,4-dihydro-indeno[1,2-c]pyrazol-3-yl)-amine], the values for the half-inhibitory concentration (IC50) (on c-Abl kinase; in test [1]) were 143 nM and 41.5 nM, respectively. Moreover, the inhibition at 10 µM in test [1] is 98.5%.

As for `COc1cccc(Nc2[nH]nc3c2Cc2cc(F)c(OC)cc2-3)c1` [Compound 360, (6-Fluoro-7-methoxy-2,4-dihydro-indeno[1,2-c]pyrazol-3-yl)-(3-methoxy-phenyl)-amine], on c-Abl kinase, the half-maximal inhibitory concentration (IC50) stood at 77 nM. Further, in test [1], the inhibition at 10 µM is 98% and the IC50 stood at 7.5 nM.

As for `COc1cc2c(cc1F)Cc1c-2n[nH]c1Nc1ccc(F)cc1` [Compound 361, (6-Fluoro-7-methoxy-2,4-dihydro-indeno[1,2-c]pyrazol-3-yl)-(4-fluoro-phenyl)-amine], the IC50 on c-Abl kinase is 43 nM. Further, in test [1], the inhibition at 10 µM is 100% and the IC50 is 11.6 nM.

Turning to `COc1cc2c(cc1O)Cc1c-2n[nH]c1Nc1cccc(F)c1` [Compound 363, 3-(3-Fluoro-phenylamino)-7-methoxy-2,4-dihydro-indeno[1,2-c]pyrazol-6-ol], on c-Abl kinase, the IC50 stood at 1 nM. For the same compound, in test [1], the inhibition at 10 µM is 76.5% and the IC50 is 5.47 nM.

Turning to `COc1cc2c(cc1Br)Cc1c-2n[nH]c1Nc1cccc(F)c1` [Compound 369, (6-Bromo-7-methoxy-2,4-dihydro-indeno[1,2-c]pyrazol-3-yl)-(3-fluoro-phenyl)-amine], the half-maximal inhibitory concentration (IC50) at c-Abl kinase was determined as 47 nM; in test [1], 18.7 nM. In addition, the inhibition at 10 µM in test [1] was 100%.

On to `COc1cccc(Nc2[nH]nc3c2Cc2cc(Br)c(OC)cc2-3)c1` [Compound 370, (6-Bromo-7-methoxy-2,4-dihydro-indeno[1,2-c]pyrazol-3-yl)-(3-methoxy-phenyl)-amine], for which the half-maximal inhibitory concentration (IC50) at c-Abl kinase was determined as 6 nM. In test [1], the inhibition at 10 µM is 94% and the IC50 is 12.2 nM.

For the compound `CCOc1cc2c(cc1OCCCO)-c1n[nH]c(Nc3cccnc3)c1C2` [Compound 371, 3-[6-Ethoxy-3-(pyridin-3-ylamino)-2,4-dihydro-indeno[1,2-c]pyrazol-7-yloxy]-propan-1-ol], the IC50 on c-Abl kinase turned out to be 905 nM. In test [1], the inhibition at 10 µM was found to be 100% and the IC50 is 47.6 nM.

For `OCCCOc1cc2c(cc1OCCCO)-c1n[nH]c(Nc3cccc(Cl)c3)c1C2` [Compound 373, 3-[3-(3-Chloro-phenylamino)-7-(3-hydroxy-propoxy)-2,4-dihydro-indeno[1,2-c]pyrazol-6-yloxy]-propan-1-ol], the IC50 on c-Abl kinase was 10 nM. Moreover, in test [1], the inhibition at 10 µM was 100% and the IC50 came out at 3.77 nM.

For the compound `CCOc1cccc(Nc2[nH]nc3c2Cc2cc(OC)c(OC)cc2-3)c1` [Compound 374, (6,7-Dimethoxy-2,4-dihydro-indeno[1,2-c]pyrazol-3-yl)-(3-ethoxy-phenyl)-amine], the figures for the IC50 (on c-Abl kinase; in test [1]) were 51 nM and 14.1 nM, respectively. Besides, the inhibition at 10 µM in test [1] turned out to be 100%.

In the case of `CCOc1cccc(Nc2[nH]nc3c2Cc2cc(OCCCO)c(OC)cc2-3)c1` [Compound 376, 3-[3-(3-Ethoxy-phenylamino)-7-methoxy-2,4-dihydro-indeno[1,2-c]pyrazol-6-yloxy]-propan-1-ol], the IC50 on c-Abl kinase is 60 nM. In addition, in test [1], the inhibition at 10 µM came to 100% and the IC50 was 9.1 nM.

Take `CCOc1cccc(Nc2[nH]nc3c2Cc2cc(OCC(O)CO)c(OC)cc2-3)c1` (stereo not drawn) [Compound 379, 3-[3-(3-Ethoxy-phenylamino)-7-methoxy-2,4-dihydro-indeno[1,2-c]pyrazol-6-yloxy]-propane-1,2-diol]: on c-Abl kinase, the IC50 is 14 nM. Besides, in test [1], the inhibition at 10 µM was determined as 100% and the IC50 turned out to be 8.12 nM.

Consider `Fc1cccc(Nc2[nH]nc3c2oc2ccccc23)c1` [Compound 380, (3-Fluoro-phenyl)-(2H-8-oxa-2,3-diaza-cyclopenta[a]inden-1-yl)-amine], for which the IC50 at c-Abl kinase was 327 nM. In test [1], the inhibition at 10 µM came to 99.5% and the IC50 was 15.3 nM.

For `Fc1ccc(Nc2[nH]nc3c2oc2ccccc23)cc1Cl` [Compound 381, (3-Chloro-4-fluoro-phenyl)-(2H-8-oxa-2,3-diaza-cyclopenta[a]inden-1-yl)-amine], the values for the IC50 (on c-Abl kinase; in test [1]) were 1500 nM and 54.9 nM, respectively. For the same compound, the inhibition at 10 µM in test [1] was 100%.

As for `CCOc1cc2c(cc1OCCCO)Cc1c-2n[nH]c1Nc1cccc(F)c1` [Compound 382, 3-[7-Ethoxy-3-(3-fluoro-phenylamino)-2,4-dihydro-indeno[1,2-c]pyrazol-6-yloxy]-propan-1-ol], the IC50 at c-Abl kinase is 19 nM. For the same compound, in test [1], the inhibition at 10 µM was 100% and the IC50 was 11.9 nM.

Turning to `CCOc1cc2c(cc1OCCCO)Cc1c-2n[nH]c1Nc1cccnc1` [Compound 383, 3-[7-Ethoxy-3-(pyridin-3-ylamino)-2,4-dihydro-indeno[1,2-c]pyrazol-6-yloxy]-propan-1-ol], the results for the IC50 (on c-Abl kinase; in test [1]) were 183 nM and 25.3 nM, respectively. Besides, the inhibition at 10 µM in test [1] amounted to 93%.

Turning to `CCOc1cc2c(cc1OCCCO)Cc1c-2n[nH]c1Nc1cccc(OC)c1` [Compound 384, 3-[7-Ethoxy-3-(3-methoxy-phenylamino)-2,4-dihydro-indeno[1,2-c]pyrazol-6-yloxy]-propan-1-ol], at c-Abl kinase, the IC50 is 4 nM. Besides, in test [1], the inhibition at 10 µM was 100% and the IC50 was determined as 5.61 nM.

For `COc1cc2c(cc1OCCCO)Cc1c-2n[nH]c1NCc1ccccc1Cl` [Compound 385, 3-[3-(2-Chloro-benzylamino)-7-methoxy-2,4-dihydro-indeno[1,2-c]pyrazol-6-yloxy]-propan-1-ol], the IC50 at c-Abl kinase came out at 12 nM. Moreover, in test [1], the inhibition at 10 µM amounted to 98.5% and the IC50 is 4.07 nM.

Consider `COc1cc2c(cc1OCCCO)Cc1c-2n[nH]c1NCc1ccccc1F` [Compound 386, 3-[3-(2-Fluoro-benzylamino)-7-methoxy-2,4-dihydro-indeno[1,2-c]pyrazol-6-yloxy]-propan-1-ol], for which, on c-Abl kinase, the IC50 amounted to 20 nM. In test [1], the inhibition at 10 µM was determined as 95.5% and the IC50 worked out at 11 nM.

These data come from patent publication US7196110B2, “N-substituted tricyclic 3-aminopyrazoles as inhibitors for the treatment of cell proliferative disorders” (Janssen Phamaceutica N.V., priority 2002, dated 2007).
